In patent publication US20250382332A1, “NOVEL ALPHA-FACTOR BASED PEPTIDES WITH ANTIFUNGAL ACTIVITY” (INVAIO SCIENCES, INC., priority 2024, published 2025):
Peptide text beside a SMILES is read from it.

Tested on: Botrytis cinerea (B05.10)
Assay: Resazurin antifungal assay of 180 alpha-factor peptide variants towards Botrytis (Example 2)
Format: cell-based
Parameters: key to active against Botrytis at 15 μM / active against Botrytis at 10 μM: Peptides that showed greater than 90% inhibition were considered active against Botrytis
Settings: for Inhibition at 50 μM / Inhibition at 100 μM / Inhibition at 10 μM / Inhibition at 15 μM / Inhibition at 20 μM: % inhibition of fungal growth, Botrytis conidia, resazurin; for Inhibition at 50 μM: peptide 50 μM; for Inhibition at 100 μM: peptide 100 μM; for Inhibition at 10 μM: peptide 10 μM; for Inhibition at 20 μM: peptide 20 μM
Procedure: The antifungal activity of 180 alpha-factor peptide variants towards Botrytis was tested. Experimental design:
Peptides corresponding to SEQ ID NO: 1-180 were chemically synthesized using the solid-phase synthesis method and resuspended in water to a stock solution of 1 mM. The stock solution was aliquoted in cryovials and stored at −80° C.
The Botrytis cinerea culture (B05.10) isolate was acquired from the Centraalbureau voor Schimmelcultures, the Netherlands. The Botrytis fungus was propagated on 0.5% V8 agar plates (200 ml V8 Juice, 3 g CaCO3, 15 g agar, 800-ml millipore water) at 20° C., in a 12 h photoperiod for 21 days.
Fungal conidia were harvested by scraping a Botrytis plate flooded with 1 ml water with 0.1% Tween 80 solution. Conidia were then collected in a 50 ml falcon tube by passing the solution through a 40 micron filter. The solution was then centrifuged at 6000 rpm and the pellet was resuspended in 1 ml of 20% glycerol. The conidia concentration of the resulting solution was counted using a hemocytometer. The stock was diluted to […] using 20% glycerol and frozen in 100 μl aliquots in −80° C. until further use.
Peptides were tested for activity against Botrytis, using the resazurin assay. For this, fungal stock conidia was first diluted to 5000 conidia/well. 50 μl of the spore suspension was added to each well of the sterile 96-well clear bottom testing plate and mixed with 50 μl of peptide solutions to a final concentration of 100, 50, 20, 15 and 10 μM. The plate was incubated for 24 h at 20° C. After 24 h, 10 μl of resazurin dye was added to the microtiter plate and incubated again for […]. Fluorescence was measured at 570/620 nm after 4 h of incubation with resazurin.
Growth inhibition was calculated by subtracting the fluorescence values of conidia only wells from sample wells and depicted as % inhibition of fungal growth. Four technical replicates were used for all treatments.

Row | Structure (SMILES) | Inhibition at 50 μM [%] | Inhibition at 100 μM [%] | Inhibition at 10 μM [%] | Inhibition at 15 μM (peptide 15 μM) [%] | Inhibition at 20 μM [%] | active against Botrytis at 15 μM (peptide 15 μM)
1 | CSCC[C@H](NC(=O)[C@@H]1CCCN1C(=O)[C@H](CCC(N)=O)NC(=O)CNC(=O)[C@@H]1CCCN1C(=O)[C@H](CCCCN)NC(=O)[C@H](Cc1ccccc1)NC(=O)[C@H](CCCCN)NC(=O)[C@H](CC(C)C)NC(=O)[C@H](CC(=O)O)NC(=O)[C@H](Cc1c[nH]cn1)NC(=O)[C@@H](N)CCCCN)C(=O)N[C@@H](Cc1ccc(O)cc1)C(=O)O [compound 116] (H-KHDLKFKPGQPMY-OH; N-terminus and C-terminus assumed) | <90 | 93.51 |  |  |  | 
2 | CC[C@H](C)[C@H](NC(=O)[C@H](Cc1c[nH]c2ccccc12)NC(=O)[C@H](CCC(=O)O)NC(=O)[C@@H](N)CCCCN)C(=O)N[C@@H](CCC(N)=O)C(=O)N[C@@H](CC(C)C)C(=O)N[C@@H](CCCCN)C(=O)N[C@@H](CC(C)C)C(=O)NCC(=O)N[C@@H](CCC(N)=O)C(=O)N1CCC[C@H]1C(=O)N[C@@H](CCSC)C(=O)N[C@@H](Cc1ccc(O)cc1)C(=O)O [compound 31] (H-KEWIQLKLGQPMY-OH; N-terminus and C-terminus assumed) | <90 | <90 |  |  |  | 
3 | CC[C@H](C)[C@H](NC(=O)[C@H](CC(C)C)NC(=O)[C@H](Cc1c[nH]cn1)NC(=O)[C@@H]1CCCN1)C(=O)N[C@@H](CCC(N)=O)C(=O)N[C@@H](CC(C)C)C(=O)NCC(=O)N[C@@H](CC(C)C)C(=O)NCC(=O)N[C@@H](CCC(N)=O)C(=O)N1CCC[C@H]1C(=O)N[C@@H](CCSC)C(=O)N[C@@H](Cc1ccc(O)cc1)C(=O)O [compound 131] (H-PHLIQLGLGQPMY-OH; N-terminus and C-terminus assumed) | <90 | <90 |  |  |  | 
4 | CSCC[C@H](NC(=O)[C@@H]1CCCN1C(=O)[C@H](CCC(=O)O)NC(=O)CNC(=O)[C@@H]1CCCN1C(=O)[C@H](CCCCN)NC(=O)[C@H](CC(C)C)NC(=O)[C@H](CC(N)=O)NC(=O)[C@H](CC(C)C)NC(=O)[C@H](Cc1c[nH]c2ccccc12)NC(=O)[C@H](CCCCN)NC(=O)[C@@H]1CCCN1)C(=O)N[C@@H](Cc1ccc(O)cc1)C(=O)O [compound 148] (H-PKWLNLKPGEPMY-OH; N-terminus and C-terminus assumed) | <90 | <90 |  |  |  | 
5 | CSCC[C@H](NC(=O)[C@H](CO)NC(=O)[C@H](CO)NC(=O)CNC(=O)[C@@H]1CCCN1C(=O)[C@H](CCCCN)NC(=O)[C@H](CC(C)C)NC(=O)[C@H](CCC(N)=O)NC(=O)[C@H](CC(C)C)NC(=O)[C@@H](NC(=O)[C@H](CCCNC(=N)N)NC(=O)[C@@H](N)Cc1c[nH]c2ccccc12)C(C)C)C(=O)N[C@@H](Cc1ccc(O)cc1)C(=O)O [compound 50] (H-WRVLQLKPGSSMY-OH; N-terminus and C-terminus assumed) | <90 | <90 |  |  |  | 
6 | CSCC[C@H](NC(=O)[C@@H]1CCCN1C(=O)[C@H](CCC(=O)O)NC(=O)CNC(=O)[C@@H]1CCCN1C(=O)[C@H](CCCCN)NC(=O)[C@H](CC(C)C)NC(=O)[C@H](CCCCN)NC(=O)[C@H](CC(C)C)NC(=O)[C@H](Cc1c[nH]c2ccccc12)NC(=O)[C@H](Cc1c[nH]cn1)NC(=O)[C@@H]1CCCN1)C(=O)N[C@@H](Cc1ccc(O)cc1)C(=O)O [compound 136] (H-PHWLKLKPGEPMY-OH; N-terminus and C-terminus assumed) | <90 | <90 |  |  |  | 
7 | CC[C@H](C)[C@H](NC(=O)[C@H](CO)NC(=O)[C@H](CC(C)C)NC(=O)[C@H](Cc1c[nH]c2ccccc12)NC(=O)[C@H](Cc1c[nH]cn1)NC(=O)[C@@H](N)Cc1c[nH]c2ccccc12)C(=O)N[C@@H](CCCCN)C(=O)N1CCC[C@H]1C(=O)NCC(=O)N[C@@H](CCC(N)=O)C(=O)NCC(=O)N[C@@H](CCSC)C(=O)N[C@@H](Cc1ccc(O)cc1)C(=O)O [compound 110] (H-WHWLSIKPGQGMY-OH; N-terminus and C-terminus assumed) | <90 | 97.94 |  |  |  | 
8 | CSCC[C@H](NC(=O)[C@@H]1CCCN1C(=O)[C@H](CCC(N)=O)NC(=O)CNC(=O)[C@@H]1CCCN1C(=O)[C@H](CC(N)=O)NC(=O)[C@H](CC(C)C)NC(=O)[C@H](CCCNC(=N)N)NC(=O)[C@H](CC(C)C)NC(=O)[C@H](Cc1c[nH]c2ccccc12)NC(=O)[C@H](Cc1c[nH]cn1)NC(=O)[C@@H](N)CCCCN)C(=O)N[C@@H](Cc1ccc(O)cc1)C(=O)O [compound 69] (H-KHWLRLNPGQPMY-OH; N-terminus and C-terminus assumed) | 100 | 100 | <90 | <90 | 95.74 | 
9 | CSCC[C@H](NC(=O)[C@H](Cc1c[nH]cn1)NC(=O)[C@@H](N)Cc1c[nH]c2ccccc12)C(=O)N[C@@H](CC(C)C)C(=O)N[C@@H](CCC(=O)O)C(=O)N[C@@H](Cc1ccccc1)C(=O)N[C@@H](CCCCN)C(=O)N1CCC[C@H]1C(=O)NCC(=O)N[C@@H](CCC(N)=O)C(=O)N1CCC[C@H]1C(=O)N[C@@H](CCSC)C(=O)N[C@@H](Cc1ccc(O)cc1)C(=O)O [compound 36] (H-WHMLEFKPGQPMY-OH; N-terminus and C-terminus assumed) | <90 | <90 |  |  |  | 
10 | CSCC[C@H](NC(=O)[C@H](Cc1c[nH]cn1)NC(=O)[C@@H](N)Cc1c[nH]c2ccccc12)C(=O)NCC(=O)N[C@@H](CCC(N)=O)C(=O)N[C@@H](CC(C)C)C(=O)N[C@@H](CCCCN)C(=O)N1CCC[C@H]1C(=O)NCC(=O)N[C@@H](CCC(=O)O)C(=O)N1CCC[C@H]1C(=O)N[C@@H](CCSC)C(=O)N[C@@H](Cc1ccc(O)cc1)C(=O)O [compound 137] (H-WHMGQLKPGEPMY-OH; N-terminus and C-terminus assumed) | <90 | <90 |  |  |  | 
11 | CSCC[C@H](NC(=O)[C@@H]1CCCN1C(=O)[C@H](CCC(N)=O)NC(=O)CNC(=O)[C@@H]1CCCN1C(=O)[C@H](CCCCN)NC(=O)[C@H](Cc1ccccc1)NC(=O)[C@H](CC(N)=O)NC(=O)[C@H](CC(C)C)NC(=O)[C@H](Cc1ccc(O)cc1)NC(=O)[C@H](Cc1c[nH]cn1)NC(=O)[C@@H](N)CCCCN)C(=O)N[C@@H](Cc1ccc(O)cc1)C(=O)O [compound 24] (H-KHYLNFKPGQPMY-OH; N-terminus and C-terminus assumed) | 96.95 | 100 | <90 |  | <90 | 
12 | CSCC[C@H](NC(=O)[C@@H]1CCCN1C(=O)[C@H](CCC(N)=O)NC(=O)CNC(=O)[C@@H]1CCCN1C(=O)[C@H](Cc1c[nH]c2ccccc12)NC(=O)[C@H](CC(C)C)NC(=O)[C@H](CCCCN)NC(=O)[C@H](CC(C)C)NC(=O)[C@H](Cc1c[nH]c2ccccc12)NC(=O)[C@H](Cc1c[nH]cn1)NC(=O)[C@@H](N)CCCCN)C(=O)N[C@@H](Cc1ccc(O)cc1)C(=O)O [compound 14] (H-KHWLKLWPGQPMY-OH; N-terminus and C-terminus assumed) | 100 | 100 | <90 |  | <90 | 
13 | CC[C@H](C)[C@H](NC(=O)[C@H](CCCNC(=N)N)NC(=O)[C@H](CC(C)C)NC(=O)[C@H](Cc1c[nH]c2ccccc12)NC(=O)[C@H](Cc1c[nH]cn1)NC(=O)[C@@H](N)CCCCN)C(=O)N[C@@H](CCCCN)C(=O)N[C@@H](Cc1c[nH]c2ccccc12)C(=O)NCC(=O)N[C@@H](CCC(=O)O)C(=O)N1CCC[C@H]1C(=O)N[C@@H](CCSC)C(=O)N[C@@H](Cc1ccc(O)cc1)C(=O)O [compound 52] (H-KHWLRIKWGEPMY-OH; N-terminus and C-terminus assumed) | 100 | 100 | <90 | 97.66 | 100 | active
14 | CSCC[C@H](NC(=O)[C@@H]1CCCN1C(=O)[C@H](CCC(N)=O)NC(=O)CNC(=O)[C@@H]1CCCN1C(=O)[C@H](CCCCN)NC(=O)[C@H](CC(C)C)NC(=O)[C@H](C)NC(=O)[C@H](CC(C)C)NC(=O)[C@H](Cc1ccccc1)NC(=O)[C@H](Cc1c[nH]cn1)NC(=O)[C@@H](N)CCCCN)C(=O)N[C@@H](Cc1ccc(O)cc1)C(=O)O [compound 28] (H-KHFLALKPGQPMY-OH; N-terminus and C-terminus assumed) | <90 | 100 |  |  |  | 
